Data published in PubChem BioAssay (NCI).
Values joined by “and” are separate entries in the source; they are usually repeats but may differ in a detail not shown here. Identical values can stand only once.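 1) Cells in 96-well plates. 2) Compound, 48 h, 5 concentrations. 3) Linear interpolation between surrounding doses. 4) Unreached endpoint = highest concentration. At the GI50, growth is halved. The concentration for full growth arrest is given as TGI.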 Where a SMILES comes first, the peptide text is derived from it. The star is where a group is joined. Boc = CC(C)(C)OC(=O)*

Experiments:
Experiment in all cases: inhibition of tumour cell growth, NCI panel, 48 h
HL-60(TB) leukemia = test system: HL-60(TB) leukemia
UACC-62 melanoma = test system: UACC-62 melanoma
KM12 colon = test system: KM12 colon
K-562 leukemia = test system: K-562 leukemia
A549 NSCLC = test system: A549 NSCLC
U251 CNS = test system: U251 CNS
SR leukemia = test system: SR leukemia
RPMI-8226 leukemia = test system: RPMI-8226 leukemia
SW-620 colon = test system: SW-620 colon
SK-MEL-2 melanoma = test system: SK-MEL-2 melanoma

Structure (SMILES)	TGI (HL-60(TB) leukemia) [µM]	TGI (UACC-62 melanoma) [µM]	TGI (KM12 colon)	TGI (K-562 leukemia) [µM]	TGI (A549 NSCLC) [µM]	TGI (U251 CNS) [µM]	TGI (SR leukemia) [µM]	TGI (RPMI-8226 leukemia) [µM]	TGI (SW-620 colon) [µM]	TGI (SK-MEL-2 melanoma)	GI50 (HL-60(TB) leukemia) [µM]	GI50 (UACC-62 melanoma) [µM]	GI50 (KM12 colon) [µM]	GI50 (K-562 leukemia) [µM]	GI50 (A549 NSCLC) [µM]	GI50 (U251 CNS) [µM]	GI50 (SR leukemia)	GI50 (RPMI-8226 leukemia) [µM]	GI50 (SK-MEL-2 melanoma) [µM]
S=C1CC(c2ccc(Cl)cc2)Sc2ccccc2N1 (stereo not given)	> 100	> 100	> 100 µM	> 10	> 100	> 100	> 100	> 100											
Cc1nc2ccccc2n1CCc1nc2ccccc2s1	60.8	> 100	> 100 µM	> 100	> 100	> 100	> 100	> 100	> 100	> 100 µM									
COc1ccc(CNc2nc3ccccc3nc2-c2cccs2)cc1	> 100	> 100	> 100 µM	> 100	> 100	> 100	> 100	> 100	> 100										
O=c1[nH]cnc2c1ncn2[C@H]1CO[C@@H](CO)[C@@H]1O		> 100	> 100 µM	> 100		> 100	> 100	> 100	> 100	> 100 µM									
NS(=O)(=O)c1ccc(/C=C/c2cccc(O)c2)cc1	> 100	50.4	> 100 µM	> 100	> 100	> 100	> 100	57.7	> 100	78.2 µM	41.4	18.6	35.4	43.4	19.8	21.1	17.8 µM	18.9	
CC(=O)Nc1ccc(Nc2nc(=O)[nH]c(=O)[nH]2)cc1	> 100	> 100	> 100 µM		> 100	> 100	> 100	> 100	> 100	> 100 µM									
Clc1ccc(-c2nc(-c3ccc(Cl)cc3)[s+]s2)cc1		> 100	> 100 µM	> 100	> 100	> 100	94.2	90.6	> 100	> 100 µM									
CC1(C)CCOC(=O)C(Cl)CC1Cl (stereo not given)		> 100	> 100 µM	> 100	> 100	> 100	> 100		> 100	> 100 µM									
Clc1ccc(OCc2nnc(CCCCCCCCc3nnc(COc4ccc(Cl)cc4Cl)o3)o2)c(Cl)c1		> 100	> 100 µM	> 100	> 100	> 100		> 100	> 100	> 100 µM									
CC(NC(=O)C(NC(=O)OC(C)(C)C)C(C)C)C(=O)NCC(=O)O (stereo not drawn) (Boc-Val-Ala-Gly-OH; configuration not given here)		> 100	> 100 µM	> 100	> 100	> 100	> 100	> 100	> 100	> 100 µM									
O=[N+]([O-])C(=C(NCc1ccccc1)NCc1ccccc1)C(Cl)=C(Cl)Cl	45.9	98.7	47.7 µM	54.2	> 100		57.8	68.4	> 100										
O=S1(=O)c2ccccc2N2CCCc3cc(Cl)cc1c32	> 100	> 100	> 100 µM	> 100	> 100		> 100		> 100	> 100 µM									
Nc1cc(CO)cc(Nc2c3ccccc3nc3occc23)c1	74.4	86.8	> 100 µM		> 100	> 100	27.3	> 100		73.9 µM									
O=C1CSC2(CCN(CCCN3c4ccccc4Sc4ccc(Cl)cc43)CC2)N1		23.7	19.1 µM	16.8	23.4	20.6		18.3	23.6	31 µM									
Cc1ccc(-n2c(C)nc3c2C(=O)c2ccccc2C3=O)cc1	> 100	56.6	> 100 µM	> 100	> 100	> 100	> 100		> 100	> 100 µM									
NNC(=O)c1ccccc1NC(=O)/C(=C/c1ccccc1)NC(=O)c1ccccc1	> 100	> 100	> 100 µM	> 100	> 100	> 100		> 100	> 100	> 100 µM									
COc1ccc2nc3c([N+](=O)[O-])ccc4c3c(c2c1)NCCN4C	> 100	2.88	23.2 µM	> 100	2.57	13.4	> 100		4.76										
CC1=C(C#N)S(=O)(=O)c2c(oc(C)c2C)N1		> 100	> 100 µM	> 100	> 100	> 100		> 100	> 100	> 100 µM									
Cc1nc2c(Br)cc(Br)cc2c(=O)n1-c1ccccc1N	66.5	> 100	> 100 µM	> 100	> 100		> 100		> 100	58.1 µM									
Cc1cc2ccccc2c[n+]1CC(=O)CC([O-])(C(F)(F)F)C(F)(F)F	> 100	> 100		> 100	> 100	> 100	> 100	> 100	> 100	> 100 µM									
CC(Nc1cc(Cl)cc(Cl)c1)c1ccncc1 (stereo not given)				> 100	> 100	35.2		42.5	70.5										
C=C[C@H]1CN2CC[C@H]1C[C@@H]2[C@@H](O)c1ccnc2ccccc12	> 100	> 100	> 100 µM	> 100	> 100	> 100		90	> 100	> 100 µM									
CCOC(=O)/C(=C\c1ccc(CO)o1)P(=O)(OCC)OCC		> 100	> 100 µM		> 100	> 100	71.6	91.4	60.9	92.2 µM									

Structure (SMILES)	TGI (HL-60(TB) leukemia) [µM]	TGI (UACC-62 melanoma) [µM]	TGI (KM12 colon)	TGI (K-562 leukemia) [µM]	TGI (A549 NSCLC) [µM]	TGI (U251 CNS) [µM]	TGI (SR leukemia) [µM]	TGI (RPMI-8226 leukemia) [µM]	TGI (SW-620 colon) [µM]	TGI (SK-MEL-2 melanoma)	GI50 (HL-60(TB) leukemia) [µM]	GI50 (UACC-62 melanoma) [µM]	GI50 (KM12 colon) [µM]	GI50 (K-562 leukemia) [µM]	GI50 (A549 NSCLC) [µM]	GI50 (U251 CNS) [µM]	GI50 (SR leukemia)	GI50 (RPMI-8226 leukemia) [µM]	GI50 (SK-MEL-2 melanoma) [µM]
COC(=O)c1ccc(OCc2ccc3oc(=O)c(-c4ccccc4)nc3c2)cc1	> 100		> 100 µM	> 100	> 100	> 100	> 100	> 100	> 100	> 100 µM									
COC(=O)CC1C2CC3C(C2=O)C13 (stereo not given)	> 100	> 100	> 100 µM	> 100	> 100	> 100	> 100		> 100	> 100 µM									
CN(C)c1ccc(/C=N/NC2=N/C(=C\c3ccco3)C(=O)N2)cc1	> 100	> 100	> 100 µM	> 100	> 100	> 100		> 100	> 100	> 100 µM									
CCCCNC(=S)Nc1nc(C(=O)NNS(=O)(=O)c2ccccc2)cs1		59.2	> 100 µM	> 100	> 100	> 100	> 100	> 100		43.8 µM									
O=C1NC(N2CCOCC2)=N/C1=C\c1ccccc1O	> 100		> 100 µM	> 100	> 100	> 100		> 100	> 100	> 100 µM									
O=C1/C(=C/c2cccs2)N=C(c2ccccc2)N1C1Nc2cc3c(cc2S1)NC(N1C(=O)/C(=C/c2cccs2)N=C1c1ccccc1)S3 (stereo not given)	39.6		> 100 µM	> 100	> 100	32.7	31	51.7	> 100	36.9 µM									
COC1C(O)=C2C(=O)OC(C)(O)/C=C/C=C\C=C/C=C/C(c3ccccc3)NC(=O)/C=C/C=C/C=C/C=C/C2(C)C1O (stereo not given)		0.258	0.117 µM and 0.148 µM	> 100	0.0253	0.0382			0.0498	0.235 µM and 0.318 µM	0.113						0.0053 µM and 0.0269 µM		0.0929
CO[P@]1(=O)O[C@@H](c2ccccc2)[C@H](O)[C@]1(O)c1ccccc1	> 100	> 100	> 100 µM	> 100	> 100	> 100		> 100	> 100	> 100 µM									
CN(C)Cc1cc(N=Nc2ccc(Cl)c(Cl)c2)ccc1O	9.44	19.4	16.5 µM	14.1	27.5	23.6	28.6	38.8	23.1										
CC(=O)O[C@H]1/C(=C/c2ccc(N(C)C)cc2)C[C@H]2[C@@H]3CC=C4C[C@@H](N5CCCC5)CC[C@]4(C)[C@H]3CC[C@]12C	> 100	> 100		> 100	> 100	> 100	> 100	> 100	> 100	> 100 µM									
c1ccc2c(c1)SC1Sc3ccccc3[S+]21 (stereo not given)	60.9	37.4	31.1 µM	> 23.3	> 100	45.5		49.9	> 76.7	> 100 µM									
O=C(CCCC(=O)N1CC(CCl)c2ccc([N+](=O)[O-])cc21)N1CC(CCl)c2ccc([N+](=O)[O-])cc21 (stereo not given)	> 100	> 100		> 100	92.4	> 100	60.5	> 100	> 100	> 100 µM									
Cc1nnc2c3c(-c4ccccc4)c(-c4ccccc4)oc3nc(N(C)C)n12	46.9	> 100	> 100 µM	> 100	> 100	> 100	67.2	82.3	> 100										
C/C(=N/O)c1cccc(Nc2nc3ccccc3c3[nH]c4ccccc4c23)c1	8.23	4.65	9.92 µM	10.6	8.8	11.5	3.85		19.4	5.8 µM									
COc1ccc(-c2cc(-c3ccc(Nc4ccnc5cc(Cl)ccc45)cc3)nc(N)c2C#N)c2ccccc12		> 100	> 100 µM	> 100	> 100	> 100	> 100	> 100	> 100	> 100 µM									
COC(=O)c1c(O)ccc2c1c1c(n2C)C(=O)c2ccccc2C1=O	> 100		> 100 µM	> 100	> 100	67.5	> 100	64.8	> 100	> 100 µM									
CCn1c2c(c3c(C(=O)OC)c(O)ccc31)C(=O)c1ccccc1C2=O	57.3		34.6 µM	> 100	38.9	36.3	46.6	27.2	33.8	30.5 µM									
COC1CCC(OC2CC(C3(C)CCC4(CC(O)C(C)C(C(C)/C=C(\C)C(=O)C(C)CC(C)C(=O)O)O4)O3)OC3(OC(C4OC(O)(CO)C(C)CC4C)CC3C)C2C)OC1C (stereo not given)		0.298	1.31 µM		1.97	0.817	< 0.0134	< 0.0386	1.88	0.576 µM									
COc1cccc(-c2cc(=O)c3cc(C)cnc3[nH]2)c1	0.617	> 100		> 100		> 100	95.7	29.6	> 100	7.45 µM									
Brc1ccc2c(c1)C1=C(CO2)Cc2ccccc2O1		32.2	37.2 µM	> 100	48	36.3	> 100	61.8	66.4	34.3 µM									
c1ccc(N=NNNc2ccc(-c3nc4ccccc4[nH]3)cc2)cc1	62.1		> 100 µM	94.6	> 100	> 100	> 100	42.4	> 100	88.7 µM									
O=C(CSC1=NCCN1)c1ccccc1		> 100	> 100 µM	> 100	> 100	> 100	> 100	> 100	> 100	> 100 µM									
O=C1CC(O)c2c(Cl)sc(Cl)c21 (stereo not given)		31.5	> 22.7 µM	> 28.7	36.2	20.2	20.7	59.7	6.5	31.2 µM									
